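Cultured in 96-well plates, cells were exposed to test compound for 48 hours across five concentrations. Here, GI50 denotes the concentration required for 50% inhibition of growth. TGI is the concentration that stops growth completely.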
Tests used:
Assay in all cases: NCI tumour cell line growth inhibition, 48 h
CAKI-1 renal = tested on: CAKI-1 renal
BT-549 breast = tested on: BT-549 breast
NCI/ADR-RES ovarian = tested on: NCI/ADR-RES ovarian
M14 melanoma = tested on: M14 melanoma
A498 renal = tested on: A498 renal
U251 CNS = tested on: U251 CNS
ACHN renal = tested on: ACHN renal
TK-10 renal = tested on: TK-10 renal
SF-268 CNS = tested on: SF-268 CNS
SR leukemia = tested on: SR leukemia

SMILES | GI50 (CAKI-1 renal) [µM] | TGI (CAKI-1 renal) [µM] | GI50 (BT-549 breast) [µM] | TGI (BT-549 breast) [µM] | GI50 (NCI/ADR-RES ovarian) [µM] | TGI (NCI/ADR-RES ovarian) [µM] | GI50 (M14 melanoma) [µM] | TGI (M14 melanoma) [µM] | GI50 (A498 renal) [µM] | TGI (A498 renal) [µM] | GI50 (U251 CNS) [µM] | TGI (U251 CNS) [µM] | GI50 (ACHN renal) [µM] | TGI (ACHN renal) [µM] | GI50 (TK-10 renal) [µM] | TGI (TK-10 renal) [µM] | GI50 (SF-268 CNS) [µM] | TGI (SF-268 CNS) [µM] | GI50 (SR leukemia) [µM] | TGI (SR leukemia) [µM]
CC(C)(C)c1[nH]cnc1/C=c1\[nH]c(=O)/c(=C/c2ccccc2)[nH]c1=O | < 0.01 | 32.7 | 0.0139 | 12.1 | < 0.01 | > 100 | < 0.01 | 17.1 | < 0.01 | 0.51 | < 0.01 | 43.9 | < 0.01 | 35.7 | 14.1 | > 100 | < 0.0123 | > 70.1 |  | 
COc1ccc2c(c1)[n+]([O-])c(-c1ccccc1)c(N)[n+]2[O-] |  | 92.3 |  |  |  |  |  | 78.9 |  | > 100 |  | > 100 |  | > 100 |  | > 100 |  | > 100 |  | 
COC(=O)C1=C(C(=O)OC)C23CC1C1C(C(=O)OC)=C(C(=O)OC)C12C1C=CC3C2C(=O)OC(=O)C21 (centres undefined) |  |  |  |  |  |  |  | > 100 |  |  |  | > 100 |  | > 100 |  | > 100 |  | > 100 |  | 
Oc1ccc(O)c(-c2cc(-c3ccccc3)nn2-c2ccccc2)c1 | 30.6 | > 100 | 13.4 | 33.7 | 11.5 | 29.7 | 12.4 | 25.4 |  |  | 5.7 | 19.9 | 14.4 | 29.7 | 14 | 71 | 16.4 | 64.8 |  | 
CN[C@@H](C)[C@@H](N)c1ccccc1 |  | > 100 |  |  |  |  |  | > 100 |  | > 100 |  | > 100 |  | > 100 |  | > 100 |  |  |  | 
CCOC(=O)/C=C/c1cc2cc(-c3csc4ccccc34)ccc2[nH]1 | 3.13 | 15.2 |  |  | 10 | 55.3 | 5.42 | 22.8 | 12 | 24.6 | 5.49 | 18.8 | 7.15 | 20.1 | 14.4 | 29 | 11 | 26.6 | 1.98 | 8.04
CC(=O)c1c(C)n(C)c2c1nnc1ccccc12 |  | > 100 |  | > 100 |  | > 100 |  | > 100 |  | > 100 |  | > 100 |  | > 100 |  | > 100 |  | > 100 |  | 
O=S(=O)(O)c1ccc(-c2nnc(-c3ccccn3)nc2-c2ccc(S(=O)(=O)O)o2)o1 |  | > 100 |  | > 100 |  | > 100 |  | > 100 |  | > 100 |  | > 100 |  | > 100 |  |  |  | > 100 |  | > 100
O=C1N(c2ccccc2)C(=O)C2(SC=NN2Cc2ccccc2)N1c1ccccc1 (centres undefined) |  | > 100 |  |  |  |  |  | > 100 |  | > 100 |  | > 100 |  | > 100 |  | > 100 |  | > 100 |  | > 100
COc1ccc(N=Nc2c(-c3ccccc3)nn(C(=O)CC(=O)Nc3cccc(Cl)c3)c2-c2ccccc2)cc1 |  | > 100 |  |  |  |  |  |  |  | > 100 |  | > 100 |  | > 100 |  | > 100 |  | > 100 |  | 
CC1(C)CCc2cc3c(cc2O1)OCC1c2cc4c(cc2OC31)OCO4 (centres undefined) |  | > 100 |  |  |  |  |  | > 100 |  | > 100 |  | > 100 |  | > 100 |  | > 100 |  | > 100 |  | > 100
COc1cnc2c(c1)C(=O)c1c-2n(CCCN2CCC(O)CC2)c(=O)c2cc(F)ccc12 |  |  | 0.697 | 14.4 | 0.303 | 1.98 | 0.254 | 1.63 | 0.198 | 1.23 | 0.0814 | 0.453 | 0.0902 | 0.332 | 0.323 | 1.59 | 0.272 | 8.32 | 0.0806 | 1.19
CN(C)c1ccc(/C=C2\N=C(c3ccc([N+](=O)[O-])cc3)OC2=O)cc1 |  | > 100 |  | > 100 |  |  |  | > 100 |  | > 100 |  | > 100 |  | > 100 |  | > 100 |  | > 100 |  | 86.9
O=c1cccccc1NCCCCCCNc1cccccc1=O |  | > 100 |  |  |  |  |  | > 100 |  | > 100 |  | > 100 |  | > 100 |  | > 100 |  | > 100 |  | 
CCOC(=O)C1=C(C)NC2SC(=O)/C(=C\c3ccccc3O)N2C1c1ccccc1 (centres undefined) | 36.8 | > 100 | 23.3 | 59.8 | 23.3 | 60.3 | 24 | 65.5 | 11.1 | 33.9 | 21.5 | 49.6 | 28.5 | 81.4 | 21.3 | 49 | 29.7 | > 100 |  | 
CC(C)(C#N)c1cc(F)cc(C(=O)Nc2cc(Nc3ncccc3-c3ncnc4nc[nH]c34)ccc2F)c1 |  |  | 3.63 | > 10 | 4.58 | > 10 | 0.0682 | 1.02 | 0.2 | 1.09 | 3.55 | > 10 | 1.85 | > 10 | > 10 | > 10 | 3.78 | > 10 | 7.31 | > 10
Cc1cccc(C(=O)/C=C/SC(=NC#N)SCc2ccccc2)c1 | 13.1 | 39.3 | 16.1 | 36.7 | 24.4 | 64.5 | 24.8 | 59.1 |  |  | 22.5 | 99.4 | 25.6 | 67 | 13.1 | 32 | 28.8 | > 100 | 3.99 | > 100
CO/N=C(\C)c1cccc(Nc2cc(-c3ccccc3)nc3c(O)cccc23)c1 | 2.78 | 13.7 | 15.1 | 55.1 | 2.02 | 13.5 | 3.13 | 18.2 |  |  | 4.38 | 16.7 | 6.04 | 28.1 | 6.89 | 22.8 |  |  | 3.83 | 29.8
